Values of other authors, collected in patent publication US20190105332A1, “METHODS OF TREATING PROSTATE CANCER” (Janssen Oncology, Inc., priority 2017, published 2019).
Like-named read-outs stand apart in the source and are kept apart here.

Assays:
[1] = for activity of metabolite / share of exposure as circulating metabolite in human plasma: in vivo
CYP2D6 = molecular target: T1, CYP2D6 (Homo sapiens, UniProt P10635); conditions: human hepatic microsomes
T1 construct: from tissue; host or cells: in vivo, trial participants (endogenous hepatic enzyme)
T1 sequence (P10635 whole entry): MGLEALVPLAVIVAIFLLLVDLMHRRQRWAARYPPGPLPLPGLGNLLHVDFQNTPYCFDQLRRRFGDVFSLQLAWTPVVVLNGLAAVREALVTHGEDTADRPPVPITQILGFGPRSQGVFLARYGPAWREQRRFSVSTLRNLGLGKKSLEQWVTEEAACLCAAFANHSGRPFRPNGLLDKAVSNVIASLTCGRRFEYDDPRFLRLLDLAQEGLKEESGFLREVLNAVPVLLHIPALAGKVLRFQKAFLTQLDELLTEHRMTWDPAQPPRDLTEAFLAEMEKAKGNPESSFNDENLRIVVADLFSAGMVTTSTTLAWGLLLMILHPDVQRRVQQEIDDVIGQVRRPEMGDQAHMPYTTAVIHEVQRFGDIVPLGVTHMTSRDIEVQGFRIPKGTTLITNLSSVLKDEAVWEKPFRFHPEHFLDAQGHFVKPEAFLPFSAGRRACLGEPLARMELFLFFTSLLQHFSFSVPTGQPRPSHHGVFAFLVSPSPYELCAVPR

CYP3A4 [2] = molecular target: T2, CYP3A4 (Homo sapiens, UniProt P08684); conditions: in vitro
T2 sequence (P08684 whole entry): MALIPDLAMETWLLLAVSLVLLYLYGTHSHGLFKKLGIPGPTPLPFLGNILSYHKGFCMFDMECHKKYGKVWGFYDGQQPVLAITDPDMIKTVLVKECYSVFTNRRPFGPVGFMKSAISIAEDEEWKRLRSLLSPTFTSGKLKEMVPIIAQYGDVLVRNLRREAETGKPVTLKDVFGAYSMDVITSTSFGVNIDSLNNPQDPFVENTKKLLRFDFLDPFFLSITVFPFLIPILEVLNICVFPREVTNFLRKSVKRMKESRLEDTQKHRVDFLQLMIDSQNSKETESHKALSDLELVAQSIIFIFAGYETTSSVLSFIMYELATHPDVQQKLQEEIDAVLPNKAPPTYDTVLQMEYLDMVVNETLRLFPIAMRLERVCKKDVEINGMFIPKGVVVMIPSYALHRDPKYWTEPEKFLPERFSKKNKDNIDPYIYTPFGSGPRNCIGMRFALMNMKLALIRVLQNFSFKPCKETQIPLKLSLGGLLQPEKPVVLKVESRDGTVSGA

[3] = end-stage renal disease on dialysis; single oral 1,000 mg dose
[4] = test system: primary human lymphocytes
P-glycoprotein (P-gp) = P-glycoprotein (P-gp) (Homo sapiens, UniProt P08183); conditions: in vitro, clinically relevant concentrations
Sequence of P-glycoprotein (P-gp) (P08183 whole entry): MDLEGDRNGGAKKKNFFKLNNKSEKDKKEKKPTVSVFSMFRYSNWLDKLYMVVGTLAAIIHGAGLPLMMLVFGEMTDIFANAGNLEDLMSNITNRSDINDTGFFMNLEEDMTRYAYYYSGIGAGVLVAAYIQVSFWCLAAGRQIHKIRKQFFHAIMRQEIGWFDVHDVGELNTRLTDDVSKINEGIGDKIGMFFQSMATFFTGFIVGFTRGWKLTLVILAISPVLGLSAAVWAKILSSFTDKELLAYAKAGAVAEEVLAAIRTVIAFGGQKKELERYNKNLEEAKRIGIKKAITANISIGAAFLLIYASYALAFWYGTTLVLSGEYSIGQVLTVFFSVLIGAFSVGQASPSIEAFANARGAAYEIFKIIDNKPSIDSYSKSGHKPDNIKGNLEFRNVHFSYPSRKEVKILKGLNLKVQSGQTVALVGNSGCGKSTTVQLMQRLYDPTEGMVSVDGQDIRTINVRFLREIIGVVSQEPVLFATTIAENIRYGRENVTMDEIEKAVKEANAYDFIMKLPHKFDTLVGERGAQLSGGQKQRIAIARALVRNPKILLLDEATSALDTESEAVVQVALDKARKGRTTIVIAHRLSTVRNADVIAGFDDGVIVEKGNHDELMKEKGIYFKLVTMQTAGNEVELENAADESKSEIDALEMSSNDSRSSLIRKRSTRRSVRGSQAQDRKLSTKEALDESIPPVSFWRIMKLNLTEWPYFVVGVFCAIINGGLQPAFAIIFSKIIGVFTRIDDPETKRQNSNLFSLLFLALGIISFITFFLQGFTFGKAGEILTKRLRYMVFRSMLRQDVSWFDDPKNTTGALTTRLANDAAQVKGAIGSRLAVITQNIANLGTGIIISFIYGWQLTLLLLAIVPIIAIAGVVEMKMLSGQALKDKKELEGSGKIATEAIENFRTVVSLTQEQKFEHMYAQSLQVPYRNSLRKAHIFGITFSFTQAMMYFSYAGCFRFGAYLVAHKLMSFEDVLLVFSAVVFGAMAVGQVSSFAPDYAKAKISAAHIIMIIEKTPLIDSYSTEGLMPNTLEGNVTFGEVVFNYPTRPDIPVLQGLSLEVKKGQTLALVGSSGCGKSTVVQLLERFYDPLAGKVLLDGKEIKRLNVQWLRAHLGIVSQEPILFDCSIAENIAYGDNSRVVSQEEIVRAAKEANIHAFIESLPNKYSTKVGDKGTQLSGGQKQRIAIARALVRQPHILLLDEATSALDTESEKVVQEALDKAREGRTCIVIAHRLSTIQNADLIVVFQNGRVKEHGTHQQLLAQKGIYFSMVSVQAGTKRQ

OATP1B1 = molecular target: T3, OATP1B1 (Homo sapiens, UniProt Q9Y6L6); conditions: in vitro
T3 sequence (Q9Y6L6 1-691): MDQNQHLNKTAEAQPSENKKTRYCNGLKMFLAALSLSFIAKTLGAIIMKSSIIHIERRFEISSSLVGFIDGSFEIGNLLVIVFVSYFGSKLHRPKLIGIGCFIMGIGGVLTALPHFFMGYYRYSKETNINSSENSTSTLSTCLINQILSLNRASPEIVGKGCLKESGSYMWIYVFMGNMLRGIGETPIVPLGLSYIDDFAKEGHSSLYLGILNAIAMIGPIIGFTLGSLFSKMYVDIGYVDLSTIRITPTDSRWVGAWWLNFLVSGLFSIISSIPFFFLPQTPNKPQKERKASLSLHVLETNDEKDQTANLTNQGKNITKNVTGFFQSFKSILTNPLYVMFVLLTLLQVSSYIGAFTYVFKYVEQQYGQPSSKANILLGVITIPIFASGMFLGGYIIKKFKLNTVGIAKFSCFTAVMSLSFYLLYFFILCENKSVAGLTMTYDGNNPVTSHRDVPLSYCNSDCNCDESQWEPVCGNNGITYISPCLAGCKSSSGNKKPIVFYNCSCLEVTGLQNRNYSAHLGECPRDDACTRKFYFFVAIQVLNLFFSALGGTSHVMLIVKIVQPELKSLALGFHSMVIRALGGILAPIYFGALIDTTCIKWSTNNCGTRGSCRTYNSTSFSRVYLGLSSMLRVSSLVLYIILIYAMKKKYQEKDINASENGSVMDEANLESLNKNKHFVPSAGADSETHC

CYP1A2 = molecular target: T4, CYP1A2 (Homo sapiens, UniProt P05177); set-up: In vitro studies with human hepatic microsomes; from tissue; host or cells: human hepatic microsomes; conditions: human hepatic microsomes
T4 sequence (P05177 1-516): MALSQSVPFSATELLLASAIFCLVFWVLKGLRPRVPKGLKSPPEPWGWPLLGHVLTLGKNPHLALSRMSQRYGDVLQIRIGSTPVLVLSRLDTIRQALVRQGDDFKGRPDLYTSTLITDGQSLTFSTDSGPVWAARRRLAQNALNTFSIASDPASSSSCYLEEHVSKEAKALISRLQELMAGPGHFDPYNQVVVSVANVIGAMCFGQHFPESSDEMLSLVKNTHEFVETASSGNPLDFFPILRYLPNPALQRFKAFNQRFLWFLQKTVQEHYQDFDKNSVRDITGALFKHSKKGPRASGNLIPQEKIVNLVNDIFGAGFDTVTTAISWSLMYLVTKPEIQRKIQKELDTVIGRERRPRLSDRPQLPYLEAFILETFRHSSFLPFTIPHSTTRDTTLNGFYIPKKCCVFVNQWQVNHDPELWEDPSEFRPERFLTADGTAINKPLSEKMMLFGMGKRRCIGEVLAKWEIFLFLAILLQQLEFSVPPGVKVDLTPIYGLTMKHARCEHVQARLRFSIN

CYP2C9 = molecular target: T5, CYP2C9 (Homo sapiens, UniProt P11712); conditions: human hepatic microsomes
T5 construct: In vitro studies with human hepatic microsomes; from tissue; host or cells: human hepatic microsomes
T5 sequence (P11712 whole entry): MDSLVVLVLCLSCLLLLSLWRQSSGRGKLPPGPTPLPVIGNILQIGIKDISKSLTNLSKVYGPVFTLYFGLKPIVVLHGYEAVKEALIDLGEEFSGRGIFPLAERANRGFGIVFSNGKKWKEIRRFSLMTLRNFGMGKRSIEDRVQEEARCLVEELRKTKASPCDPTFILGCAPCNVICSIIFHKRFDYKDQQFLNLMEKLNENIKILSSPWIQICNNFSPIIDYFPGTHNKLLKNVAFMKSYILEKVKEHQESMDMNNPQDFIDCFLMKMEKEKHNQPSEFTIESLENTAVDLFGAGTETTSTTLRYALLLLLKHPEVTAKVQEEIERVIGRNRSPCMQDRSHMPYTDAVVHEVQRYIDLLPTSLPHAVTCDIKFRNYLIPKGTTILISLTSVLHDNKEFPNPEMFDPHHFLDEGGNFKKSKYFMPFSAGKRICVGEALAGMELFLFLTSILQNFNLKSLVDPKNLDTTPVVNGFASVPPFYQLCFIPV

[5] = test system: human plasma proteins, albumin and alpha-1 acid glycoprotein
[6] = rat micronucleus assay
[7] = not given; remark: listed apart in the source
CYP3A4 [8] = molecular target: T2, CYP3A4; set-up: from tissue; host or cells: in vivo, healthy human subjects (endogenous enzyme); conditions: healthy subjects
[9] = not given; remark: listed apart in the source
[10] = healthy subjects, single dose with high-fat (57% fat, 825 calories) meal
[11] = healthy subjects, single dose with low-fat meal (7% fat, 300 calories)

C[C@]12CC[C@H](OS(=O)(=O)O)CC1=CC[C@@H]1[C@@H]2CC[C@]2(C)C(c3ccc[n+]([O-])c3)=CC[C@@H]12 [N-oxide abiraterone sulphate]
activity of metabolite [1]: inactive | share of exposure as circulating metabolite in human plasma [1]: about 43%

C[C@]12CC[C@H](O)CC1=CC[C@@H]1[C@@H]2CC[C@]2(C)C(c3cccnc3)=CC[C@@H]12 [abiraterone]
inhibition of CYP2D6 (CYP2D6): potential to inhibit | substrate of CYP3A4 (CYP3A4 [2]): substrate | systemic exposure vs normal renal function [3]: did not increase | clastogenicity in vitro [4]: not mutagenic in an in vitro microbial mutagenesis (Ames) assay or clastogenic | substrate of P-glycoprotein (P-gp) (P-glycoprotein (P-gp)): not substrates | inhibition of hepatic uptake transporter OATP1B1 (OATP1B1): inhibit | inhibition of CYP1A2 (CYP1A2): potential to inhibit | inhibition of CYP2C9 (CYP2C9): to a lesser extent | bound to human plasma proteins [5]: > 99% | compound present in feces, share of the administered dose ([1]; oral 14C-abiraterone acetate): ~22% | clastogenicity in vivo [6]: not mutagenic in an in vitro microbial mutagenesis (Ames) assay or clastogenic | steady-state Cmax (mean±SD) (1,000 mg daily, patients with metastatic CRPC): 226 ± 178 ng/mL | dose proportionality (dose range of 250 mg to 1,000 mg): No major deviation from dose proportionality | increase in the mean AUC when dose doubled (from 1,000 to 2,000 mg): 8% | accumulation: steady-state AUC compared to a single 1,000 mg dose (human, in vivo): 2 fold | median time to reach maximum plasma abiraterone concentrations (oral abiraterone acetate, patients with metastatic CRPC): 2 h | AUC0-∞, fold higher vs overnight fasting [7, 10]: ~10 fold | Cmax, fold higher vs overnight fasting [7, 10]: approximately 17 fold | AUC0-∞, fold higher vs overnight fasting [7, 11]: ~5 fold | Cmax, fold higher vs overnight fasting [7, 11]: approximately 7 fold | systemic exposure increase vs dosing away from meals ([7]; patients with metastatic CRPC, repeated dosing with high-fat meals for 7 days): approximately 2 fold | systemic exposure vs dosing away from meals ([7]; patients with metastatic CRPC, repeated dosing with low-fat meals for 7 days): similar | AUC0-∞, fold higher vs overnight fasting ([7]; single dose 1 hour before a medium fat meal (25% fat, 491 calories)): ~1.6 fold | AUC0-∞, fold higher vs overnight fasting ([7]; single dose 2 hours after a medium fat meal (25% fat, 491 calories)): approximately 7 fold | effect of ketoconazole co-administration on pharmacokinetics (CYP3A4 [8]): no clinically meaningful effect | decrease of exposure (mean plasma AUC∞) with rifampin (CYP3A4 [8]; rifampin 600 mg daily for 6 days, then single 1,000 mg abiraterone acetate): 55% | mean half-life ([9]; mild hepatic impairment): approximately 18 hours | mean half-life ([9]; moderate hepatic impairment): approximately 19 hours | systemic exposure (AUC) increase vs normal hepatic function ([9]; moderate hepatic impairment (Child-Pugh Class B), single oral 1,000 mg dose): ~3.6 fold | systemic exposure (AUC) increase vs normal hepatic function ([9]; severe hepatic impairment (Child-Pugh Class C)): approximately 7 fold

abiraterone sulphate
activity of metabolite [1]: inactive | share of exposure as circulating metabolite in human plasma [1]: about 43%
